Consider two compounds from patent publication EP1398031A1, “Use of 6-amino-quinoline-5,8-quinones and nucleic acids associated with senescence for the treatment of tumors” (Max-Planck-Gesellschaft zur Förderung der Wissenschaften …, priority 2002, dated 2004).

For series [1], the system named is p21 mRNA in HDF. The experiment in a line: Northern blot analysis of p21 mRNA. Format: cell-based, human. Particulars: 0.2 µg/ml adriamycin. How it is done:
(§1) RNA was isolated using the RNAgents kit (Promega). A Northern probe directed against the 3'-untranslated region of ELF1 α mRNA was generated by PCR using an EST as template and subsequent gel purification. The p21 probe corresponds to the open reading frame of p21. A probe corresponding to the 5'-region of sGC-β3 was amplified from HDF-cDNA and subcloned. Hybridizations were performed in QuickHyb, following the manufacturer's instructions (Stratagene).

In series [2] the test system is p21 protein in HCT116 cells. The experiment in a line: Western blot analysis, p21. The series is classed as cell-based, human. How it is done:
(§2) Cells were lysed in a lysis buffer composed of 50 mM HEPES pH 7.5, 150 mM NaCl, 1 mM EGTA, 10 % glycerol, 1 % Triton X-100, 100 mM NaF, 10 mM Na4P2O7, 1 µM PMSF, and 1 µM Na3VO4. Protein concentration in whole lysates was determined using a Bradford assay (BioRad). 20 µg of lysates diluted with Laemmli-buffer were separated on 12 % SDS-polyacrylamide gels and transferred to Immobilon-P membranes (Millipore). For detection of pRb, separation was performed on a 7-12 % gradient gel. Antibodies against p53 (Pab 1801), p21 (c-19), p16 (c-20) and α-Tubulin (TU-02) were purchased from Santa Cruz Biotechnology. Anti-pRB antibodies (G3-245) were from BD PharMingen. Enhanced chemiluminescence generated by horse radish peroxidase-coupled secondary antibodies was detected with a CF440 imager (Kodak/Perkin Elmer).
For orientation: Immunoblotting shows a protein as a band on a membrane.

For series [3], the system named is HDF. The experiment in a line: cGMP assay (competitive immunoassay on cell lysates). Format: cell-based. Particulars: Homo sapiens, 1 µM LY, 100 µM SNP for 2 hours, read-out: inhibition of the SNP-induced synthesis of cGMP. Here is the method:
Cells of early and late passages were seeded in equal numbers in 6-well plates. 24 hours later SNP (Sigma) was dissolved in complete medium and added to cells to a final concentration of 100 µM. Control cells received the same volume of drug-free medium. After 2 hours of incubation, medium was removed and cells were lysed by addition of 400 µl 0.1 M HCl per well for 10 minutes. cGMP concentration in lysates was determined using a specific competitive immunoassay according to the manufacturer's instructions (Sigma). A plate reader (LAMBDA E, MWG-Biotech) was used to detect the signal at 405 nm. Experiments were performed in triplicates with all samples measured twice.

Series [4] concerns HDF. The experiment in a line: proliferation assay (cell counting). The series is classed as cell-based. How it is done: (§3) Cells were seeded in equal numbers in 6-well plates the day before addition of LY in order to ensure uniform cell layers at the start of the experiments. Cells were treated in triplicates with daily exchange of medium containing drug or drug-free vehicle. For each time point cells were trypsinized and cell proliferation was assessed using a Z1 Counter (Coulter).

For series [5], the system named is HDF. The experiment in a line: SA-β-gal staining and morphology. The series is classed as cell-based, human. Particulars: early passage HDF treated with LY. How it is done:
Cells were fixed by incubation in 0.5 % glutaraldehyde in PBS for 5 minutes at room temperature and stained for SA-ß-galactosidase at pH 6.0 as described by Dimri et al., 1995.
(§4) For phase contrast and β-gal staining an Axiovert 25 microscope (Zeiss) equipped with a HyperHAD CCD camera (Sony) and ImageBase software (Kappa) was used. In vivo expression of histone-H2B-eGFP was documented with a Photometrics CooISNAP-HQ CCD camera (Roper Scientific) on an inverted Axiovert 200M microscope (Zeiss) using the Metamorph software (Universal Imaging).

The test system of series [6] is HDF. The series is described as follows: FACS analysis of cell cycle after release from confluence. Format: cell-based, human. Particulars: HDF synchronized by confluence, released by trypsinization; 1 µM LY, 24 and 36 hours. Here is the method: (§5) Cell samples (both adherent and floating cells) were harvested by trypsinization, washed once with PBS and fixed in 70 % ethanol for > 2 hours on ice, washed once with PBS and incubated for 30 minutes at room temperature in staining solution containing 50 µg/ml of propidium iodide, 0.2 mg/ml of RNase A and 0.1 % (v/v) Triton X-100 in PBS. Quantification of apoptotic cells was performed using the Annexin V-FITC apoptosis detection kit (Becton Dickinson). Samples were analyzed with a FACScan unit (Becton Dickinson). 1×10^4 cells were analyzed for each assay. Quantitation was performed using single histogram statistics.
For orientation: In flow cytometry, cells or beads pass a laser one at a time.

Series [7] has as its system HDF. The experiment in a line: detection of DNA-synthesis (BrdU incorporation). The series is classed as cell-based, human. Particulars: 1 µM LY; synchronized HDF; 10 µM BrdU for 6 hours. Here is the method:
Cells were plated on cell locate glass grids (Eppendorf) and labeled for 6 hours using the 5'-bromo-2'-deoxy-uridine labelling and detection kit I (Roche Applied Sciences). After staining with a FITC-labeled anti-BrdU-antibody, positive cells were detected by fluorescence microscopy.

Series [8] deals with p53 protein in HDF. The experiment in a line: Western blot analysis, p53. The series is classed as cell-based, human. Particulars: after treatment with LY. How it is done: as §2
Series [9] deals with p16INK4A in HDF. The series is described as follows: Western blot analysis, p16. Particulars: 48 hours of treatment with LY. The series is classed as cell-based, human. Here is the method:
as §2

In series [10] the test system is pRb in HDF. The experiment in a line: Western blot analysis, pRb phosphorylation status. The series is classed as cell-based, human. How it is done: as §2
The subject of series [11] is DLD1. The experiment in a line: proliferation assay (cell counting). Format: cell-based, human. Particulars: after addition of LY. Here is the method:
as §3

In series [12] the test system is HCT116. The experiment in a line: proliferation assay (cell counting). The series is classed as cell-based, human. How it is done:
as §3

For series [13], the system named is MCF7. The experiment in a line: proliferation assay (cell counting). Particulars: after addition of LY. Format: cell-based, human. How it is done:
as §3

Series [14] deals with p21-deficient HCT116 colorectal cancer cells. The experiment in a line: proliferation assay (cell counting). Format: cell-based, human. Here is the method:
as §3

Series [15] has as its system p53-deficient HCT116 cells. The experiment in a line: proliferation assay (cell counting). The series is classed as cell-based, human. Particulars: after LY addition. How it is done:
as §3

In series [16] the test system is p21 mRNA and protein of p53-/- HCT116. The series is described as follows: Northern and Western blot analysis of p21. The series is classed as cell-based, human. Particulars: 1.5 µM LY. How it is done:
as §1, §2

In series [17] the test system is p16INK4A-deficient mouse embryo fibroblasts (MEF). The series is described as follows: proliferation (data not shown). The series is classed as cell-based. Particulars: LY. How it is done:
as §3

Series [18] relates to NIH3T3-L1 cells expressing the K1-mutant. The series is described as follows: proliferation assay (cell counting). The series is classed as cell-based, mouse. Particulars: 1.5 µM LY; most cells. How it is done:
as §3

Series [19] concerns NIH3T3-L1 cells expressing wildtype SV40 large T antigen. The experiment in a line: proliferation assay, morphology and annexin V staining. Format: cell-based, mouse. Particulars: 1.5 µM LY. How it is done:
as §5, §3

The test system of series [20] is HeLa. The experiment in a line: cell death / apoptosis (histone H2B-eGFP chromatin morphology, sub-G1 flow cytometry). Format: cell-based, human. Here is the method:
as §5, §4

For series [21], the system named is HEK293. The experiment in a line: cell death (data not shown). Particulars: treatment with LY, no arrest. The series is classed as cell-based, human.
Series [22] relates to cdk-inhibitors p27 and p15. The experiment in a line: induction of cdk-inhibitors (data not shown). The series is classed as cell-based. Particulars: LY-treatment.
In series [23] the target is soluble guanylate cyclase. Particulars: competitive inhibitor of soluble guanylate cyclase; Fleisch et al., 1984; cited from earlier work.

For `COc1cccc2c1C(=O)c1c(O)c3c(c(O)c1C2=O)C[C@@](O)(C(=O)CO)C[C@@H]3O[C@H]1C[C@H](N)[C@H](O)[C@H](C)O1` [adriamycin], the “p21 mRNA” value in series [1] was “induction of p21 mRNA”. The p21 protein result in [2] (wildtype HCT116 only, adriamycin at 0.2 µg/ml for 8 hours) is recorded as “induction of p21 protein”.
Consider `O=C1C(Nc2ccccc2)=CC(=O)c2ncccc21` [LY, 6-Anilino-quinoline-5,8-quinone], for which the inhibition at 1 µM in series [3] amounted to 60%. The inhibition at 0.25 µM in series [4] (Homo sapiens, HDF, 72 h, read-out: reduction in proliferation) is 50%. Besides, the inhibition of proliferation result in series [4] (early passage fibroblasts, 1 µM LY) is listed as “completely inhibit proliferation”. In addition, in series [4] (treatment for 8 days), the “proliferation after extended treatment” value is given as “stable inhibition of proliferation”. Further, in series [4] (treatment for 8 days), the “toxicity after extended treatment” value is reported as “did not cause any obvious toxicity”. The “reversibility of inhibition of proliferation” value in series [4] (treatment period of more than 2 days, 1 µM LY) was “irreversible”. Moreover, in series [5], the “signs of senescence (morphology, SA-β-galactosidase)” value was “morphological changes characteristic of senescence and by SA-β-galactosidase staining at pH 6”. Besides, the “entry into S-phase” value in series [6] is recorded as “almost completely blocked the entry into S-phase”. For the same compound, the “DNA synthesis as determined by BrdU incorporation” value in [7] was “complete inhibition of DNA synthesis”. Also, the “level of p53 protein” value in series [8] was “did not increase”. Also, the “induction of p16INK4A” value in series [9] was “not induced”. Moreover, the “ratio of phosphorylated to hypo-phosphorylated pRb” value in series [10] (6 hours after addition of LY) was “clearly shifted towards the hypo-phosphorylated form”. Also, the pRb phosphorylation status entry in [10] (19 hours after addition of LY) is reported as “almost completely hypo-phosphorylated”. In addition, the cell proliferation entry is listed as “complete cessation of cell proliferation” in series [11]; “complete cessation of cell proliferation” in [12] (after addition of LY); “complete cessation of proliferation” in [12] (wild-type HCT116, after 5 days of LY treatment); “complete cessation of cell proliferation” in series [13]; “regained exponential proliferation” in series [14] (after 5 days of LY treatment); “complete block of proliferation” in series [15]. In addition, the cell proliferation entry is given as “inhibited” in series [17] and “inhibition of proliferation” in series [18]. The cell-cycle inhibition result in [14] (LY vs vehicle (DMSO)) is recorded as “resistant to cell-cycle inhibition”. For the same compound, the p21 protein result in series [2] (1.5 µM LY) is given as “induction of p21”. In series [16], the “levels of p21 mRNA and protein” value is “induced with kinetics similar to those observed in HDF”. Also, the cell fate result in [19] is given as “underwent apoptosis”; in series [20] (treatment with LY, no arrest, data not shown) it was “underwent cell death”; in series [21] it was “underwent cell death”. In addition, in series [20] (HeLa expressing histone H2B-eGFP, 2 µM LY for 48 hours), the chromatin morphology entry is given as “chromatin condensation”. Moreover, in [20] (HeLa treated for 60 hours with LY, flow-cytometry), the “cells with a sub-G1 DNA content” value is given as “substantial increase of cells with a sub-G1 DNA content”. In addition, in [22], the “induction of p27 and p15” value is on record as “did not lead to induction”. Further, the IC50 in [23] is 2000 nM.

Broadly, the IC50 is the concentration that inhibits the measured activity by half.
